Source: patent US5840684A, “Glycopeptide antibiotic derivatives” (Eli Lilly and Company, priority 1995, dated 1998)
Values after ≈ are worked out from the molar mass of the structure shown.

Tests used:
[1] = test system: vancomycin-resistant enterococci; assay: broth micro-dilution, mean geometric MIC; type: cell-based, Enterococcus faecium and Enterococcus faecalis; details: enterococci, 24-hour incubation
[2] = test system: vancomycin-susceptible enterococci; assay: broth micro-dilution, mean geometric MIC; type: cell-based, Enterococcus faecium and Enterococcus faecalis; details: enterococci, 24-hour incubation
[3] = test system: Entercoccus faecium 180-1; assay: broth micro-dilution MIC; type: cell-based
Method: (§1) The MIC's were determined using a standard broth micro-dilution assay.

[4] = test system: Staphylococcus aureus 447; assay: broth micro-dilution MIC; type: cell-based
Method: as §1

[5] = test system: Staphylococcus aureus SA1199A; assay: broth micro-dilution MIC; type: cell-based
Method: as §1

[6] = test system: Staphylococcus aureus X400; assay: broth micro-dilution MIC; type: cell-based
Method: as §1

[7] = test system: Staphylococcus aureus 491; assay: broth micro-dilution MIC; type: cell-based
Method: as §1

[8] = test system: Staphylococcus aureus 446; assay: broth micro-dilution MIC; type: cell-based
Method: as §1

[9] = test system: Entercoccus faecium 276; assay: broth micro-dilution MIC; type: cell-based
Method: as §1

[10] = test system: Staphylococcus aureus SA1199; assay: broth micro-dilution MIC; type: cell-based
Method: as §1

[11] = test system: Entercoccus faecium 180; assay: broth micro-dilution MIC; type: cell-based; details: Entercoccus faecium 180
Method: (§2) The formula I compounds have in vitro and in vivo activity against Gram-positive pathogenic bacteria. The MIC's were determined using a standard broth micro-dilution assay.

[12] = test system: Enterococcus gallinarum 245; assay: broth micro-dilution MIC; type: cell-based; details: Enterococcus gallinarum 245
Method: as §2

[13] = test system: Staphylococcus haemolyticus 105; assay: broth micro-dilution MIC; type: cell-based
Method: as §2

[14] = test system: Staphylococcus haemolyticus 415; assay: broth micro-dilution MIC; type: cell-based
Method: as §2

[15] = test system: Staphylococcus epidermidis 270; assay: broth micro-dilution MIC; type: cell-based
Method: as §2

[16] = test system: Staphylococcus aureus SA1199B; type: cell-based
Method: as §1

[17] = test system: Staphylococcus aureus X778; assay: broth micro-dilution MIC; type: cell-based
Method: as §1

[18] = test system: Streptococcus pyogenes C203; assay: broth micro-dilution MIC; type: cell-based
Method: as §1

[19] = test system: Streptococcus pneumoniae P1; assay: broth micro-dilution MIC; type: cell-based
Method: as §2

[20] = test system: Staphylococcus aureus S13E; type: cell-based
Method: as §1

[21] = test system: Entercoccus faecium 2041; assay: broth micro-dilution MIC; type: cell-based; details: Entercoccus faecium 2041
Method: as §2

Row | SMILES | mean geometric MIC, Vancomycin Resistant Strains [1] [mg/L] | mean geometric MIC, Vancomycin Sensitive Strains [2] [mg/L] | MIC [3] [mg/L] | MIC [4] [mg/L] | MIC [5] [mg/L] | MIC [6] [mg/L] | MIC [7] [mg/L] | MIC [8] [mg/L] | MIC [10] [mg/L] | MIC [11] [mg/L] | MIC [12] [mg/L] | MIC [13] [mg/L] | MIC [14] [mg/L] | MIC [15] [mg/L] | MIC [16] [mg/L] | MIC [17] [mg/L] | MIC [18] [mg/L] | MIC [19] [mg/L] | MIC [20] [mg/L] | MIC [21] [mg/L] | other results
1 | CNC(CC(C)C)C(=O)NC1C(=O)NC(CC(N)=O)C(=O)NC2C(=O)NC3C(=O)NC(C(=O)NC(C(=O)O)c4cc(O)cc(O)c4-c4cc3ccc4O)C(OC3CC(C)(N)C(O)C(C)O3)c3ccc(c(Cl)c3)Oc3cc2cc(c3OC2OC(CO)C(O)C(O)C2OC2CC(C)(NCCc3cccc(OCc4ccccc4)c3)C(O)C(C)O2)Oc2ccc(cc2Cl)C1O (stereo not drawn) [Compound 69] | 13 | 0.44 | ≤ 0.06 | 1 (≈ 0.555 µM) | ≤ 0.06 | 0.5 (≈ 0.277 µM) | 1 (≈ 0.555 µM) | 1 (≈ 0.555 µM) | 1 (≈ 0.555 µM) | 4 (≈ 2.22 µM) | 8 (≈ 4.44 µM) | 4 (≈ 2.22 µM) | 8 (≈ 4.44 µM) | 2 (≈ 1.11 µM) | 2 (≈ 1.11 µM) |  |  |  |  |  | MIC [9]: 0.5 mg/L (≈ 0.277 µM)
2 | CNC(CC(C)C)C(=O)NC1C(=O)NC(CC(N)=O)C(=O)NC2C(=O)NC3C(=O)NC(C(=O)NC(C(=O)O)c4cc(O)cc(O)c4-c4cc3ccc4O)C(OC3CC(C)(N)C(O)C(C)O3)c3ccc(c(Cl)c3)Oc3cc2cc(c3OC2OC(CO)C(O)C(O)C2OC2CC(C)(NCc3ccc([S+]([O-])c4ccccc4)cc3)C(O)C(C)O2)Oc2ccc(cc2Cl)C1O (stereo not drawn) [Compound 159] | 27 | 0.50 | ≤ 0.06 | 4 (≈ 2.21 µM) | ≤ 0.06 | 4 (≈ 2.21 µM) | 2 (≈ 1.11 µM) | 0.5 (≈ 0.277 µM) |  | 2 (≈ 1.11 µM) | 8 (≈ 4.43 µM) | 16 (≈ 8.86 µM) | 8 (≈ 4.43 µM) | 0.5 (≈ 0.277 µM) | ≤ 0.06 | 2 (≈ 1.11 µM) | ≤ 0.06 | ≤ 0.06 | 1 (≈ 0.553 µM) |  | 
3 | CNC(CC(C)C)C(=O)NC1C(=O)NC(CC(N)=O)C(=O)NC2C(=O)NC3C(=O)NC(C(=O)NC(C(=O)O)c4cc(O)cc(O)c4-c4cc3ccc4O)C(OC3CC(C)(N)C(O)C(C)O3)c3ccc(c(Cl)c3)Oc3cc2cc(c3OC2OC(CO)C(O)C(O)C2OC2CC(C)(NCc3ccc(OC(C)=O)c(OC)c3)C(O)C(C)O2)Oc2ccc(cc2Cl)C1O (stereo not drawn) [Compound 99] | 72 | 0.76 | ≤ 0.06 | 2 (≈ 1.13 µM) | 0.5 (≈ 0.282 µM) |  | 1 (≈ 0.565 µM) | 0.5 (≈ 0.282 µM) | 0.5 (≈ 0.282 µM) |  | 32 (≈ 18.1 µM) | 8 (≈ 4.52 µM) | 32 (≈ 18.1 µM) | 1 (≈ 0.565 µM) | 0.5 (≈ 0.282 µM) | 0.5 (≈ 0.282 µM) |  |  | 0.5 (≈ 0.282 µM) |  | 
4 | CNC(CC(C)C)C(=O)NC1C(=O)NC(CC(N)=O)C(=O)NC2C(=O)NC3C(=O)NC(C(=O)NC(C(=O)O)c4cc(O)cc(O)c4-c4cc3ccc4O)C(OC3CC(C)(N)C(O)C(C)O3)c3ccc(c(Cl)c3)Oc3cc2cc(c3OC2OC(CO)C(O)C(O)C2OC2CC(C)(NCc3ccc4c(c3)CCCC4)C(O)C(C)O2)Oc2ccc(cc2Cl)C1O (stereo not drawn) [Compound 168] | 3.4 | 0.10 | ≤ 0.06 | ≤ 0.06 | ≤ 0.06 | ≤ 0.06 | 0.5 (≈ 0.288 µM) | ≤ 0.06 | 0.5 (≈ 0.288 µM) | 0.25 (≈ 0.144 µM) | 2 (≈ 1.15 µM) | 0.5 (≈ 0.288 µM) | 2 (≈ 1.15 µM) |  | 1 (≈ 0.576 µM) | 0.5 (≈ 0.288 µM) | ≤ 0.06 | ≤ 0.06 | ≤ 0.06 | ≤ 0.06 | 
5 | CNC(CC(C)C)C(=O)NC1C(=O)NC(CC(N)=O)C(=O)NC2C(=O)NC3C(=O)NC(C(=O)NC(C(=O)O)c4cc(O)cc(O)c4-c4cc3ccc4O)C(OC3CC(C)(N)C(O)C(C)O3)c3ccc(c(Cl)c3)Oc3cc2cc(c3OC2OC(CO)C(O)C(O)C2OC2CC(C)(NCc3ccc(N4CCOCC4)cc3)C(O)C(C)O2)Oc2ccc(cc2Cl)C1O (stereo not drawn) [Compound 147] |  | 1.3 | 2 (≈ 1.13 µM) |  | ≤ 0.06 | 4 (≈ 2.26 µM) | ≤ 0.06 | 0.5 (≈ 0.283 µM) | 0.5 (≈ 0.283 µM) | 2 (≈ 1.13 µM) |  | 1 (≈ 0.566 µM) | 8 (≈ 4.53 µM) |  | ≤ 0.06 |  | ≤ 0.06 | ≤ 0.06 | 1 (≈ 0.566 µM) | ≤ 0.06 | 
6 | CNC(CC(C)C)C(=O)NC1C(=O)NC(CC(N)=O)C(=O)NC2C(=O)NC3C(=O)NC(C(=O)NC(C(=O)O)c4cc(O)cc(O)c4-c4cc3ccc4O)C(OC3CC(C)(N)C(O)C(C)O3)c3ccc(c(Cl)c3)Oc3cc2cc(c3OC2OC(CO)C(O)C(O)C2OC2CC(C)(NCc3cc(C)cc(C)c3)C(O)C(C)O2)Oc2ccc(cc2Cl)C1O (stereo not drawn) [Compound 89] | 11 | 0.44 | ≤ 0.06 | 1 (≈ 0.585 µM) | ≤ 0.06 |  | 1 (≈ 0.585 µM) | 0.5 (≈ 0.292 µM) | 0.5 (≈ 0.292 µM) | 0.125 (≈ 0.0731 µM) | ≤ 0.06 | 1 (≈ 0.585 µM) | 2 (≈ 1.17 µM) | 1 (≈ 0.585 µM) | 1 (≈ 0.585 µM) |  | ≤ 0.06 | ≤ 0.06 |  | ≤ 0.06 | MIC [9]: ≤ 0.06 mg/L
7 | CNC(CC(C)C)C(=O)NC1C(=O)NC(CC(N)=O)C(=O)NC2C(=O)NC3C(=O)NC(C(=O)NC(C(=O)O)c4cc(O)cc(O)c4-c4cc3ccc4O)C(OC3CC(C)(N)C(O)C(C)O3)c3ccc(c(Cl)c3)Oc3cc2cc(c3OC2OC(CO)C(O)C(O)C2OC2CC(C)(NCc3ccc4c(c3)CCO4)C(O)C(C)O2)Oc2ccc(cc2Cl)C1O (stereo not drawn) [Compound 82] | 22 | 0.50 | 0.125 (≈ 0.0725 µM) | 4 (≈ 2.32 µM) | 0.5 (≈ 0.29 µM) |  | 1 (≈ 0.58 µM) | 2 (≈ 1.16 µM) |  | 2 (≈ 1.16 µM) | 0.125 (≈ 0.0725 µM) | 8 (≈ 4.64 µM) | 8 (≈ 4.64 µM) | 4 (≈ 2.32 µM) | 1 (≈ 0.58 µM) | 0.5 (≈ 0.29 µM) | ≤ 0.06 | ≤ 0.06 | ≤ 0.06 | 0.5 (≈ 0.29 µM) | MIC [9]: ≤ 0.06 mg/L
